In the METLIN SMRT retention time set (Domingo-Almenara et al. 2019) one finds RP-LC retention time data, which are given here for 58 molecules.

Each structure is given as a SMILES string.

The nature of this data set: gradient 5% acetonitrile 3 min, to 50% in 2 min, to 85% in 15 min, held 3 min, 100 µL/min. Particulars: column: Zorbax Extend-C18 2.1 x 50 mm; eluents: water / acetonitrile, 0.1% formic acid. In outline: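 A Zorbax Extend-C18 column (2.1 × 50 mm, 1.8 μm) run at 100 μL/min with water and acetonitrile, both containing 0.1% formic acid, separated mixtures of ~100 pure standards. The HPLC was coupled to a quadrupole time-of-flight mass spectrometer operated in positive and negative ionization mode, with dead and dwell volumes of 40 μL and 900 μL. Each retention time was taken from a computationally picked adduct peak that was then manually inspected.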
In turn, `COc1ccccc1-c1noc(C2CCCN2C(=O)c2ccccn2)n1` (stereo not drawn) registered an RP-LC retention time of 725 s. Then `O=C(NC1CCCC1)c1ccn[nH]1`, with 614 s; and `C=CCn1c(=O)c(=O)n(Cc2ccc(C(=O)N3CCN(c4ccccn4)CC3)cc2)c2ccccc21`, with 626 s. Then `CCn1ccc(C(=O)N2CCC3(CC2)c2nccn2-c2ccccc2CN3CC(C)C)n1`, with 599 s. Then `CCS(=O)(=O)NCC1CCN(C(=O)COc2ccccc2)CC1`, with 659 s. Molecule `O=C(CN1CCC(c2nc(-c3ccccc3)no2)CC1)NC1CCCCC1` came in with an RP-LC retention time of 700 s. Then `CCOC(=O)c1ccc(Nc2c(-c3ccc(N(C)C)cc3)nc3cnccn23)cc1`, with 827 s; and `O=C(NC1(c2nc(-c3cccnc3)no2)CCCCC1)c1cc(C2CC2)[nH]n1`, with 700 s. Then `CCCc1noc(-c2ccc(-n3ncc(C(=O)N4CCC(C)CC4)c3C)nc2)n1`, with 1130 s; and `CCCCNC1(c2cc3ccccc3s2)CCCCC1`, with 831 s; and `O=C(Cn1ccc2ccn(Cc3ccccc3F)c2c1=O)NCc1ccc(F)cc1F`, with 880 s. As for `COc1ccc(Cl)c2c(=O)c3c([nH]c12)CCN(CC(=O)Nc1ccccc1F)C3`, the figure is 604 s; as for `Fc1ccc(-c2noc(-c3nnn4c3COC(c3ccc(Cl)cc3)C4)n2)cc1` (stereo not drawn), 1250 s; as for `CCOC(=O)CNC(=O)N1CCCN(C2=NS(=O)(=O)C(c3ccccc3)=C2C)CC1`, 718 s. The molecule `CC(C)NC(=O)c1ccc(-c2nc3cc(NS(=O)(=O)c4cc(F)ccc4F)ccc3n2C)cc1` gave an RP-LC retention time of 705 s.

`CSc1ncccc1C(=O)Nc1ccc(OCc2nnc(-c3ccccc3)o2)cc1` yielded an RP-LC retention time of 884 s.

With `O=C(Nc1nnc(SCc2nnc(-c3ccc4c(c3)OCO4)o2)s1)c1ccccc1`, the RP-LC retention time came out at 857 s. As for `Cc1ccc(S(=O)(=O)N2CCC(n3cnnc3-c3ccccc3)CC2)cc1C`, the figure is 859 s; as for `Cc1c(Cl)cccc1NC(=O)Cn1c(C)nc2onc(C)c2c1=O`, 817 s.

In turn, `O=C(Cn1cccc1-c1nnc(C2CC2)o1)Nc1ccc(F)c(Cl)c1` returned an RP-LC retention time of 908 s. As for `Cc1ccccc1CC(=O)Nc1cc(-c2nnc(C3CC3)o2)sc1C`, the figure is 724 s; as for `O=C(NC12CC3CC(CC(C3)C1)C2)C1CCN(S(=O)(=O)c2cccs2)CC1`, 1070 s; as for `CCN(C(=O)C1CCCN(c2ncnc3c2nc2n3CCCCC2)C1)c1ccccc1` (stereo not drawn), 838 s. As for `CC(C)CCNC(=O)CCSC1CCc2ccccc2NC1=O` (stereo not drawn), the figure is 777 s; as for `Cc1nnc(-c2ccc3ccn(CC(=O)Nc4cccc(Cl)c4)c3c2)o1`, 847 s; as for `COc1ccc(C2(C(=O)N3CCC([C@H]4[C@@H](OC)C(=O)N4C(C)C)CC3)CC2)cc1`, 776 s. Then `COC(=O)c1nnn(-c2ccc(OC)cc2)c1C(=O)OC`, with 815 s; and `COc1cc(C2CC(=O)N(CC(=O)N3CCCC3)c3ccccc3S2)cc(OC)c1OC` (stereo not drawn), with 792 s; and `CC1CCc2c(sc3nc(CCC(=O)NCCc4c[nH]c5ccccc45)[nH]c(=O)c23)C1` (stereo not drawn), with 898 s. The molecule `Cc1ccccc1Nc1c(-c2ccc(Cl)cc2)nc2ccccn12` had an RP-LC retention time of 804 s.

Molecule `N#Cc1c(N)sc2c1CCC(c1ccccc1)C2` (stereo not drawn) yielded an RP-LC retention time of 955 s. As for `CCCC(=O)Nc1ccc2nc(N3CCN(c4cccc(OC)c4)CC3)cc(C(=O)O)c2c1`, the figure is 647 s; as for `Cn1c(=O)c(SCC(=O)NCc2cccc(Cl)c2)nc2ccccc21`, 819 s; as for `COc1cc(NC(=O)NCC(c2cccnc2)c2c[nH]c3ccccc23)cc(OC)c1OC` (stereo not drawn), 631 s. As for `Cc1ccc(NC(=O)N2CCc3c(c(-c4nc(C5CC5)no4)nn3C)C2)c(C)c1`, the figure is 834 s; as for `Cc1cc(Cl)ccc1NC(=O)Cn1cccc1-c1nnc(C2CC2)o1`, 904 s; as for `COc1ccc(NC(=O)N2C[C@H]3C[C@H](C2)[C@H]2CCCC(=O)N2C3)cc1`, 620 s. As for `CC(C)c1ccc(S(=O)(=O)N2CCc3c(c(-c4nnc(-c5ccc(F)cc5)o4)nn3C)C2)cc1`, the figure is 1100 s; as for `O=C(C1CC(=O)N(C2CCCC2)C1)N1CCC(c2c[nH]c3ccccc23)(c2c[nH]c3ccccc23)CC1` (stereo not drawn), 850 s; as for `Nc1ccc(S(=O)(=O)Nc2cnc3c(Cl)cccc3n2)cc1`, 719 s. `O=C1CCCc2cc(S(=O)(=O)NCC3CCN(Cc4ccccc4F)CC3)ccc2N1` showed an RP-LC retention time of 596 s. As for `CC(C)CNC(=O)c1cn(-c2ncccc2-c2nc(C(C)(C)C)no2)cn1`, the figure is 872 s; as for `Cc1ccc(-c2cc(C(=O)O)n(C)c2)cc1`, 856 s. As for `Cc1ccc(Sc2nccnc2N2CCCC(C(=O)NCc3ccccn3)C2)cc1` (stereo not drawn), the figure is 766 s; as for `O=C(c1ccc(-c2nccnc2N2CCCC2)cc1)N1CCN(c2ccccc2)CC1`, 942 s; as for `CCOc1ccc2c(n1)CCN(C(=O)Nc1ccccc1OCC)C2`, 973 s. Then `CCOc1ccc(-n2cc(-c3nc(-c4ccccn4)no3)c3ccccc3c2=O)cc1`, with 599 s.

With `O=C(CSc1nnc(C2COc3ccccc3O2)o1)NCc1ccco1` (stereo not drawn), the RP-LC retention time was 648 s.

In turn, `CCCn1c(=O)sc2cc(S(=O)(=O)N3CCC(C(=O)N4c5ccccc5CC4C)CC3)ccc21` (stereo not drawn) displayed an RP-LC retention time of 1080 s. As for `COc1ccc(-n2nc3c(N4CCCC(C(=O)NCCCc5ccccc5)C4)nnc(C)c3c2C)cc1` (stereo not drawn), the figure is 777 s. As for `COc1ccc2nc(NC(=O)Nc3ccccc3)sc2c1`, the figure is 966 s; as for `COc1ccc(N2CCN(c3nc4ccccc4cc3-c3noc(C)n3)CC2)cc1`, 681 s; as for `C=CCN(CC=C)S(=O)(=O)c1ccc(C(=O)Nc2nc3c(s2)CCc2ccccc2-3)cc1`, 1240 s. As for `CCc1ccc(CNC(=O)C2CCN(C(=O)c3ncn4c3COC(c3ccc(C)cc3)C4)CC2)cc1` (stereo not drawn), the figure is 853 s; as for `Cc1cccc(-n2nnc(C(=O)O)c2-c2cccnc2)c1`, 650 s. The molecule `Cc1nnc2n1-c1sccc1C(c1ccccc1)=NC2` showed an RP-LC retention time of 712 s. Then `Cc1ccc(-c2c(C(=O)NCc3ccco3)nc3ccccn23)cc1`, with 1150 s. The molecule `Cc1ccc2c(=O)c3c([nH]c2c1C)CCN(CC(=O)Nc1ccc(F)c(F)c1)C3` gave an RP-LC retention time of 646 s.
